Legend:
[1] = system: sedge, umbrella; test: Test B flooded paddy test; format: in vivo, Cyperus difformis; conditions: Flood, scale of 0 to 100 where 0 is no effect and 100 is complete control
Summary of the method: (§1)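 Scored visually 0–100 (0 no effect, 100 complete control) versus controls after 13 to 15 greenhouse days. Treatment: compound added to paddy water kept 3 cm above soil, on 2-leaf-stage plants.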

[2] = system: barnyardgrass; test: Test A pre-/postemergence herbicide test; format: in vivo, Echinochloa crus-galli
Summary of the method: (§2)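 Formulated compound (non-phytotoxic solvent, surfactant) sprayed pre- onto soil of seeded loam/sand pots or post- onto seedlings at 1–2 leaves; ~10 d greenhouse; 0–100 visual control rating versus untreated.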

[3] = system: rice; test: Test B flooded paddy test; format: in vivo, Oryza sativa; conditions: Flood, scale of 0 to 100 where 0 is no effect and 100 is complete control
Summary of the method: as §1

[4] = system: blackgrass; test: Test A postemergence herbicide test; format: in vivo, Alopecurus myosuroides; conditions: for Plant response rating, Blackgrass: 125 g ai/ha, 0 to 100 scale, 0 is no effect, 100 is complete control; for Blackgrass plant response rating (0 to 100 scale, 0 is no effect, 100 is complete control): 500 g ai/ha
Summary of the method: (§3)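 Blackgrass and galium grown in pots of loam soil–sand blend, treated postemergence at 2–10 cm height, one- to two-leaf stage. Plants kept in greenhouse ~10 days, then visually rated for injury against untreated controls on a 0–100 scale (0 no effect, 100 complete control).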

[5] = system: kochia; test: Test A pre-/postemergence herbicide test; format: in vivo, Kochia scoparia; conditions: for Plant response rating, Kochia: 0 to 100 scale
Summary of the method: as §2

[6] = system: corn; test: Test A pre-/postemergence herbicide test; format: in vivo, Zea mays; conditions: Postemergence; for Plant response rating, Corn: 125 g ai/ha, 0 to 100 scale, 0 is no effect, 100 is complete control; for Corn plant response rating (0 to 100 scale, 0 is no effect, 100 is complete control): 500 g ai/ha
Summary of the method: as §2

[7] = system: barnyardgrass; test: Test B flooded paddy test; format: in vivo, Echinochloa crus-galli; conditions: Flood, scale of 0 to 100 where 0 is no effect and 100 is complete control
Summary of the method: as §1

[8] = system: ryegrass, Italian; test: Test A pre-/postemergence herbicide test; format: in vivo, Lolium multiflorum; conditions: for Plant response rating, Ryegrass, Italian: 0 to 100 scale
Summary of the method: as §2

[9] = system: ragweed; test: Test A pre-/postemergence herbicide test; format: in vivo, Ambrosia elatior; conditions: for Plant response rating, Ragweed: 0 to 100 scale
Summary of the method: as §2

[10] = system: ducksalad; test: Test B flooded paddy test; format: in vivo, Heteranthera limosa; conditions: Flood, scale of 0 to 100 where 0 is no effect and 100 is complete control
Summary of the method: as §1

[11] = system: pigweed; test: Test A pre-/postemergence herbicide test; format: in vivo, Amaranthus retroflexus; conditions: for Plant response rating, Pigweed: 0 to 100 scale
Summary of the method: as §2

[12] = system: galium; test: Test A postemergence herbicide test; format: in vivo, Galium aparine; conditions: for Plant response rating, Galium: 125 g ai/ha, 0 to 100 scale, 0 is no effect, 100 is complete control; for Galium plant response rating (0 to 100 scale, 0 is no effect, 100 is complete control): 500 g ai/ha
Summary of the method: as §3

[13] = system: wheat; test: Test A pre-/postemergence herbicide test; format: in vivo, Triticum aestivum; conditions: Postemergence; for Plant response rating, Wheat: 125 g ai/ha, 0 to 100 scale, 0 is no effect, 100 is complete control; for Wheat plant response rating (0 to 100 scale, 0 is no effect, 100 is complete control): 500 g ai/ha
Summary of the method: as §2

[14] = system: giant foxtail; test: Test A pre-/postemergence herbicide test; format: in vivo, Setaria faberii; conditions: for Plant response rating, Foxtail, Giant: 0 to 100 scale
Summary of the method: as §2

[15] = 125 g ai/ha, visual rating, 0 to 100 scale, 0 no effect, 100 complete control, approximately 10 days, preemergence
[16] = Postemergence, 125 g ai/ha, 0 to 100 scale, 0 is no effect, 100 is complete control
[17] = preemergence, 500 g ai/ha, 0 to 100 scale (0 no effect, 100 complete control)
[18] = 125 g ai/ha, visual rating, 0 no effect, 100 complete control, approximately 10 days, preemergence
[19] = Postemergence, 125 g ai/ha, 0 is no effect, 100 is complete control
[20] = preemergence, 500 g ai/ha, 0 is no effect and 100 is complete control

| Structure (SMILES) | Plant response rating, Barnyardgrass [2, 15] | Plant response rating, Barnyardgrass [2, 16] | Barnyardgrass plant response rating (0 to 100 scale, 0 is no effect, 100 is complete control) ([2]; Postemergence, 500 g ai/ha) | Plant response rating, Blackgrass [4] | Blackgrass plant response rating (0 to 100 scale, 0 is no effect, 100 is complete control) [4] | Plant response rating, Kochia [5, 18] | Plant response rating, Kochia [5, 19] | Kochia plant response rating (0 to 100 scale, 0 is no effect, 100 is complete control) ([5]; Postemergence, 500 g ai/ha) | Plant response rating, Kochia [5, 20] | Plant response rating, Corn [6] | Corn plant response rating (0 to 100 scale, 0 is no effect, 100 is complete control) [6] | Plant response rating, Ryegrass, Italian [8, 18] | Plant response rating, Ryegrass, Italian [8, 19] | Ryegrass, Italian plant response rating (0 to 100 scale, 0 is no effect, 100 is complete control) ([8]; Postemergence, 500 g ai/ha) | Plant response rating, Ryegrass, Italian [8, 20] | Plant response rating, Ragweed [9, 18] | Plant response rating, Ragweed [9, 19] | Ragweed plant response rating (0 to 100 scale, 0 is no effect, 100 is complete control) ([9]; Postemergence, 500 g ai/ha) | Plant response rating, Ragweed [9, 20] | Plant response rating, Pigweed [11, 18] | also measured |
| --- | --- | --- | --- | --- | --- | --- | --- | --- | --- | --- | --- | --- | --- | --- | --- | --- | --- | --- | --- | --- | --- |
| O=C1NCC(c2cccc(C(F)F)c2)C1C(=O)Nc1ccccc1F (racemic) [Compound 163] | 80 | 90 | 90 | 50 | 60 | 0 | 0 | 0 | 50 | 10 | 40 | 0 | 0 | 30 | 0 | 0 | 0 | 20 | 40 | 40 | Plant response rating, Sedge, Umbrella ([1]; 500 g ai/ha): 0; Plant response rating, Barnyardgrass [2, 17]: 90; Plant response rating, Rice ([3]; 500 g ai/ha): 15; Plant response rating, Barnyardgrass ([7]; 500 g ai/ha): 90; Plant response rating, Ducksalad ([10]; 500 g ai/ha): 100; Plant response rating, Pigweed [11, 19]: 0; Pigweed plant response rating (0 to 100 scale, 0 is no effect, 100 is complete control) ([11]; Postemergence, 500 g ai/ha): 20; Plant response rating, Pigweed [11, 20]: 40; Plant response rating, Galium [12]: 20; Galium plant response rating (0 to 100 scale, 0 is no effect, 100 is complete control) [12]: 60; Plant response rating, Wheat [13]: 20; Wheat plant response rating (0 to 100 scale, 0 is no effect, 100 is complete control) [13]: 60; Plant response rating, Foxtail, Giant [14, 18]: 90; Plant response rating, Foxtail, Giant [14, 19]: 70; Foxtail, Giant plant response rating (0 to 100 scale, 0 is no effect, 100 is complete control) ([14]; Postemergence, 500 g ai/ha): 80; Plant response rating, Foxtail, Giant ([14]; preemergence, 500 g ai/ha): 90 |
| O=C1NCC(c2cccc(C(F)F)c2)C1C(=O)Nc1cccc(F)c1F (racemic) [Compound 164] | 90 | 90 | 90 | 50 | 70 | 60 | 60 | 70 | 80 | 50 | 80 | 20 | 40 | 50 | 50 | 20 | 20 | 50 | 60 | 50 | Plant response rating, Sedge, Umbrella ([1]; 500 g ai/ha): 0; Plant response rating, Barnyardgrass [2, 17]: 90; Plant response rating, Rice ([3]; 500 g ai/ha): 20; Plant response rating, Barnyardgrass ([7]; 500 g ai/ha): 80; Plant response rating, Ducksalad ([10]; 500 g ai/ha): 100; Plant response rating, Pigweed [11, 19]: 20; Pigweed plant response rating (0 to 100 scale, 0 is no effect, 100 is complete control) ([11]; Postemergence, 500 g ai/ha): 60; Plant response rating, Pigweed [11, 20]: 70; Plant response rating, Galium [12]: 50; Galium plant response rating (0 to 100 scale, 0 is no effect, 100 is complete control) [12]: 60; Plant response rating, Wheat [13]: 40; Wheat plant response rating (0 to 100 scale, 0 is no effect, 100 is complete control) [13]: 80; Plant response rating, Foxtail, Giant [14, 18]: 90; Plant response rating, Foxtail, Giant [14, 19]: 70; Foxtail, Giant plant response rating (0 to 100 scale, 0 is no effect, 100 is complete control) ([14]; Postemergence, 500 g ai/ha): 90; Plant response rating, Foxtail, Giant ([14]; preemergence, 500 g ai/ha): 90 |
| CCc1cccc(C2CNC(=O)C2C(=O)Nc2ccccc2F)c1 (racemic) [Compound 169] | 90 | 90 | 90 | 30 | 60 | 40 | 0 | 40 | 60 | 0 | 50 | 0 | 20 | 40 | 20 | 0 | 0 | 0 | 20 | 0 | Plant response rating, Sedge, Umbrella ([1]; 500 g ai/ha): 0; Plant response rating, Barnyardgrass [2, 17]: 90; Plant response rating, Rice ([3]; 500 g ai/ha): 0; Plant response rating, Barnyardgrass ([7]; 500 g ai/ha): 80; Plant response rating, Ducksalad ([10]; 500 g ai/ha): 100; Plant response rating, Pigweed [11, 19]: 0; Pigweed plant response rating (0 to 100 scale, 0 is no effect, 100 is complete control) ([11]; Postemergence, 500 g ai/ha): 0; Plant response rating, Pigweed [11, 20]: 20; Plant response rating, Galium [12]: 20; Galium plant response rating (0 to 100 scale, 0 is no effect, 100 is complete control) [12]: 50; Plant response rating, Wheat [13]: 0; Wheat plant response rating (0 to 100 scale, 0 is no effect, 100 is complete control) [13]: 50; Plant response rating, Foxtail, Giant [14, 18]: 80; Plant response rating, Foxtail, Giant [14, 19]: 60; Foxtail, Giant plant response rating (0 to 100 scale, 0 is no effect, 100 is complete control) ([14]; Postemergence, 500 g ai/ha): 90; Plant response rating, Foxtail, Giant ([14]; preemergence, 500 g ai/ha): 90 |
| COc1ccc(C2CNC(=O)C2C(=O)Nc2ccccc2F)cc1C(F)(F)F (racemic) [Compound 209] | 30 | 60 | 80 | 0 | 20 | 0 | 0 | 0 | 20 | 0 | 0 | 0 | 0 | 20 | 20 | 0 | 0 | 0 | 0 | 0 | Plant response rating, Sedge, Umbrella ([1]; 1000 g ai/ha): 0; Plant response rating, Barnyardgrass ([2]; preemergence, 500 g ai/ha, 0 to 100 scale, 0 is no effect and 100 is complete control): 60; Plant response rating, Rice ([3]; 1000 g ai/ha): 0; Plant response rating, Barnyardgrass ([7]; 1000 g ai/ha): 45; Plant response rating, Ducksalad ([10]; 1000 g ai/ha): 95; Plant response rating, Pigweed [11, 19]: 0; Pigweed plant response rating (0 to 100 scale, 0 is no effect, 100 is complete control) ([11]; Postemergence, 500 g ai/ha): 0; Plant response rating, Pigweed [11, 20]: 20; Plant response rating, Galium [12]: 0; Galium plant response rating (0 to 100 scale, 0 is no effect, 100 is complete control) [12]: 0; Plant response rating, Wheat [13]: 0; Wheat plant response rating (0 to 100 scale, 0 is no effect, 100 is complete control) [13]: 0; Plant response rating, Foxtail, Giant [14, 18]: 50; Plant response rating, Foxtail, Giant [14, 19]: 40; Foxtail, Giant plant response rating (0 to 100 scale, 0 is no effect, 100 is complete control) ([14]; Postemergence, 500 g ai/ha): 70; Plant response rating, Foxtail, Giant [14, 20]: 90 |

Source: patent US10294202B2, “Pyrrolidinones as herbicides” (FMC Corporation, priority 2013, dated 2019)
